What was measured:
Format in all cases: in vivo
Barnyard Grass = assay: Postemergent activity
Description: (§1) Representative compositions of the present invention were evaluated for the postemergence control of species of plants listed in Table A. In these evaluations, pots of the plant species listed in Table A, grown to a height of about 10 cms, were used. Aqueous spray compositions, containing various amounts of 2-[4-(2-fluoro-4-trifluoromethylphenoxy)-phenoxy]propionic acid methy ester, i.e., 125 ppm, 62.5 ppm, 31.25 ppm, 15.6 ppm, 7.8 ppm and 3.9 ppm, respectively, were applied to separate pots. The spray compositions were made by mixing the active ingredient in acetone to 1/2 the final volume, i.e., twice the final concentration. An equal amount of water was added to the active ingredient/acetone mixture wherein the water contained 0.1 percent by weight of TWEEN® 200 surfactant. The application to the plants was made to the point of run-off and was carried out with conventional spraying equipment. Other pots were sprayed with similar compositions containing no toxicant to serve as controls. Thereafter, the pots were maintained under conditions conducive for plant growth. Two weeks after treatment, the pots were examined for plant growth and evaluated on a scale of 0 to 100 where 0 represents no effect and 100 represents complete kill. The results of the examination of the treated pots are set forth below in Table A.
(§2) Substantially the same procedures as those described in Example A were repeated except that the active ingredients were 2-[4-(4-chloro-2-fluorophenoxy)phenoxy]propionic acid; methyl ester and its R-enantiomer and 2-(4-(4-bromo-2-fluorophenoxy)phenoxy propionic acid; methyl ester and its R enantiomer. The results are listed below in Table B.
(§3) In further operations employing the above general procedures and the indicated test compounds the following results were obtained: […]

Crabgrass = assay: Postemergent activity
Description: as §1, §2, §3

Wheat = assay: Postemergent activity; conditions: Triticum aestivum, post-emergence, 336 h, read-out: % Control
Description: as §1, §2, §3

Wild Oats = assay: Postemergent activity; conditions: Avena fatua, post-emergence, 336 h; for pest or weed control at 7.8 ppm / pest or weed control at 15.6 ppm / pest or weed control at 62.5 ppm / pest or weed control at 125 ppm / pest or weed control at 250 ppm: read-out: % Control
Description: as §1, §2, §3

Foxtail [1] = assay: Postemergent control of plant species
Description: as §1, §3

Foxtail [2] = assay: Postemergent control of plant species; conditions: 250 ppm

SMILES | % Control (Barnyard Grass; 7.8 ppm) [%] | % Control (Barnyard Grass; 15.6 ppm) [%] | % Control (Barnyard Grass; 31.2 ppm) [%] | % Control (Barnyard Grass; 62.5 ppm) [%] | % Control (Barnyard Grass; 125 ppm) [%] | % Control (Barnyard Grass; 250 ppm) [%] | % Control (Crabgrass; 7.8 ppm) [%] | % Control (Crabgrass; 15.6 ppm) [%] | % Control (Crabgrass; 31.2 ppm) [%] | % Control (Crabgrass; 62.5 ppm) [%] | % Control (Crabgrass; 125 ppm) [%] | plant injury at 7.8 ppm (Wheat) [%] | plant injury at 15.6 ppm (Wheat) [%] | plant injury at 31.2 ppm (Wheat) [%] | pest or weed control at 7.8 ppm (Wild Oats) [%] | pest or weed control at 15.6 ppm (Wild Oats) [%] | pest or weed control at 31.2 ppm (Wild Oats) [%] | pest or weed control at 62.5 ppm (Wild Oats) [%] | pest or weed control at 125 ppm (Wild Oats) [%] | pest or weed control at 250 ppm (Wild Oats) [%] | further results
CC(=O)CC(O)C(C)Oc1ccc(Oc2ccc(Br)cc2F)cc1 (centres unmarked) | 0 | 0 | 0 | 0 | 0 | 0 | 0 | 0 | 0 | 95 | 95 | 0 | 0 | 0 | 0 | 0 | 0 | 0 | 0 | 0 | plant injury at 62.5 ppm (Wheat): 0%; plant injury at 125 ppm (Wheat): 0%; Percent Control (Foxtail [1]; 7.8 ppm): 0%; Percent Control (Foxtail [1]; 15.6 ppm): 0%; Percent Control (Foxtail [1]; 31.2 ppm): 0%; Percent Control (Foxtail [1]; 62.5 ppm): 0%; Percent Control (Foxtail [1]; 125 ppm): 20%; Percent Control (Foxtail [2]): 25%
C=CC(=O)C(C)Oc1ccc(Oc2ccc(Br)cc2F)cc1 (centres unmarked) | 0 | 0 | 0 | 0 | 0 | 30 | 0 | 0 | 0 | 100 | 98 | 0 | 0 | 0 | 0 | 0 | 0 | 0 | 0 | 0 | % Control (Crabgrass; 250 ppm): 98%; plant injury at 62.5 ppm (Wheat): 0%; plant injury at 125 ppm (Wheat): 0%; plant injury at 250 ppm (Wheat): 0%; Percent Control (Foxtail [1]; 7.8 ppm): 0%; Percent Control (Foxtail [1]; 15.6 ppm): 0%; Percent Control (Foxtail [1]; 31.2 ppm): 0%; Percent Control (Foxtail [1]; 62.5 ppm): 0%; Percent Control (Foxtail [1]; 125 ppm): 0%; Percent Control (Foxtail [2]): 100%
CCOC(=O)CC(O)C(C)Oc1ccc(Oc2ccc(Br)cc2F)cc1 (centres unmarked) | 0 | 0 | 80 | 100 | 100 | 100 | 0 | 20 | 20 | 100 | 100 | 0 | 0 | 0 | 0 | 0 | 0 | 0 | 50 | 50 | % Control (Crabgrass; 250 ppm): 100%; plant injury at 62.5 ppm (Wheat): 0%; Percent Control (Foxtail [1]; 7.8 ppm): 0%; Percent Control (Foxtail [1]; 15.6 ppm): 0%; Percent Control (Foxtail [1]; 31.2 ppm): 0%; Percent Control (Foxtail [1]; 62.5 ppm): 100%; Percent Control (Foxtail [1]; 125 ppm): 100%; Percent Control (Foxtail [2]): 100%
COC(=O)C=C(OC)C(C)Oc1ccc(Oc2ccc(Br)cc2F)cc1 (centres unmarked) | 0 | 0 | 0 | 0 | 0 | 0 | 0 | 0 | 20 | 95 | 98 | 0 | 0 | 0 | 0 | 0 | 0 | 0 | 0 | 0 | % Control (Crabgrass; 250 ppm): 100%; plant injury at 62.5 ppm (Wheat): 0%; plant injury at 125 ppm (Wheat): 0%; plant injury at 250 ppm (Wheat): 0%; Percent Control (Foxtail [1]; 7.8 ppm): 0%; Percent Control (Foxtail [1]; 15.6 ppm): 0%; Percent Control (Foxtail [1]; 31.2 ppm): 0%; Percent Control (Foxtail [1]; 62.5 ppm): 0%; Percent Control (Foxtail [1]; 125 ppm): 0%; Percent Control (Foxtail [2]): 100%
CC(=O)C(C(C)=O)C(=O)C(C)Oc1ccc(Oc2ccc(Br)cc2F)cc1 (centres unmarked) | 0 | 0 | 0 | 100 | 100 | 100 | 0 | 70 | 100 | 100 | 100 | 0 | 0 | 0 | 0 | 0 | 0 | 0 | 0 | 50 | % Control (Crabgrass; 250 ppm): 100%; Percent Control (Foxtail [1]; 7.8 ppm): 0%; Percent Control (Foxtail [1]; 15.6 ppm): 0%; Percent Control (Foxtail [1]; 31.2 ppm): 100%; Percent Control (Foxtail [1]; 62.5 ppm): 100%; Percent Control (Foxtail [1]; 125 ppm): 100%; Percent Control (Foxtail [2]): 100%
